Laboratory results reported in patent US5180720A, “2- and 3-alkoxy or hydroxy-8-substituted-dibenz[b,f]-[1,4]oxazepine-10(11H)-carboxylic acid, substituted hydrazides and methods for treating pain” (G. D. Searle & Co., priority 1991, dated 1993).
“Also recorded” adds a separate entry of the source.

Experiments:
[1] = tested on: prostaglandins of the E series; conditions: cited from earlier work
mice = test: PBQ Writhing Assay (analgesic activity); assay type: in vivo, mouse (Charles River male albino mice); conditions: for rank order of potency in the Writhing Assay: PBQ writhing; for PBQ writhing assay, I.G. (activity): 30 mg/kg i.g.; for PBQ writhing assay, S.C. (activity): 30 mg/kg s.c.
From the text: The Writhing Assay is one of the most widely-used experimental procedures for measuring the analgesic activity of different narcotic and nonnarcotic analgesic agents, and involves the continuous, chemically-induced pain of visceral origin to an animal, such as a mouse or rat. [Gyires et al., Arch. int. Pharmacodyn, 267, 131-140 (1984); C. Vander Wende et al., Fed. Proc., 15, 494 (1956); Koster et al., Fed. Proc., 18, 412 (1959); and Witken et al., J. Pharmacol. exp. Ther., 133, 400-408 (1961).] Chemicals which may be used to induce this pain include phenylbenzoquinone (PBQ) and acetic acid. As a result of the chemical irritation to the animal, a characteristic stretching and writhing of the animal (dorsiflexion of the animal's back, extension of its hindlimbs and the strong contraction of its abdominal musculature) will generally occur. […] Drugs which reduce the number of writhes of the animal appear to restore the normal nociceptive threshold of the animal.
Charles River male albino mice, weighing 20 to 30 grams were used in this assay.
Thirty minutes after subcutaneous or intragastric administration to ten mice of 30 mg per kilogram of body weight of a compound of the present invention ("test compound"), […] per 10 g of body weight of a 0.025% w/v solution of PBQ was injected intraperitoneally into each mouse. Ten mice which were given saline in place of a test compound of the invention were used as a control group.
Five minutes later, each mouse was individually placed into a glass beaker for observation, and the number of writhes occurring during the following ten-minute period was counted.
A test compound was considered to have produced analgesia in a mouse if, in accordance with the conditions set forth above, and under the test criteria employed for this assay, after the administration of 30 mg per kilogram of body weight of a compound of the present invention to the mouse, the number of writhes elicited by a mouse injected with PBQ was equal to, or less than, one-half the median number of writhes recorded for the saline-treated control group of mice that day, as described by Taber in "Predictive Value of Analgesic Assays in Mice and Rats," Advances in Biochemical Psychopharmacology, 8, 191 (1974).
The standard initial screening dose of a test compound employed in this assay was 30 mg per kilogram of body weight for both routes of administration. If this initial screening dose of the test compound produced analgesia in seven out of ten mice, then the effect of additional doses of the test compound on the writhing response was evaluated, and then the ED50 dose was generally calculated. (The slopes of the dose-response curves for all test compounds analyzed were compared as described by Tallarida and Murray, Manual of Pharmacologic Calculations, Page 11 (Springer Verlag, N.Y., 1981)).

[2] = biological target: T1, prostaglandin E2-induced contractions of segments of guinea pig ileum (Cavia porcellus, UniProt A0A286XHJ6); test: Prostaglandin (PGE) Antagonism Assay, guinea pig ileum; assay type: cell-based; design: key to PGE antagonism in guinea pig ileum (activity): Active: A concentration of the test compound was determined to be "active" if it produced a dose ratio significantly greater than that obtained in a series of blank treatments
T1 construct: Segments of ileum about 2 cm long were then cut and mounted in a 10-mL tissue bath; from tissue; host or cells: ileum segments of male albino guinea pigs
T1 sequence (A0A286XHJ6 1-405): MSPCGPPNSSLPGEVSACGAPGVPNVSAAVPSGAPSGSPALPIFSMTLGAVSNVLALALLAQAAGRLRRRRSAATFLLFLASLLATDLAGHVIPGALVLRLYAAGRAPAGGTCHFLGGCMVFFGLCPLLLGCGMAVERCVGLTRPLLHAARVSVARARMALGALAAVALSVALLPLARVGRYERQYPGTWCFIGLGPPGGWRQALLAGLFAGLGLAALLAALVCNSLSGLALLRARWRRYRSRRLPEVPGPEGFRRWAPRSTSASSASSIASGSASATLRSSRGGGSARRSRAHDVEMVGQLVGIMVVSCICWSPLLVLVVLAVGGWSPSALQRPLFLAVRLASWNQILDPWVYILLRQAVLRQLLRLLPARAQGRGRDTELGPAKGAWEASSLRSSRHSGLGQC
Description: In order to determine the effectiveness of compounds of the invention ("test compounds") as prostaglandin E2 antagonists, a prostaglandin antagonism assay was conducted, as described below, to determine the ability of these compounds to inhibit prostaglandin E2 -induced contractions of segments of guinea pig ileum.
Male albino guinea pigs weighing 200 to 500 grams were sacrificed by cervical dislocation.
The ileums were then quickly removed from the guinea pigs and placed in a modified Tyrode solution, a solution which is known to those of skill in the art, containing one-half of the usual amount of magnesium ions.
Segments of ileum about 2 cm long were then cut and mounted in a 10-mL tissue bath containing the modified Tyrode solution. The solution was maintained at 37° C. and aerated with a gaseous mixture of 95% oxygen and 5% carbon dioxide.
Submaximal contractions of the ileum segments were then generated by injecting prostaglandin E2 into the bath, and detected isotonically. Data for a control prostaglandin E2 dose response curve plotting concentration of prostaglandin E2 versus number of contractions generated was then obtained by experimentally adjusting the dose of the prostaglandin E2 being injected into the tissue bath, in a manner known by those of skill in the art.
Solutions or suspensions containing an initial amount of a test compound in modified Tyrode solution ("test solutions/ suspensions") were then separately substituted for the tissue bath. […]
If the initial concentration of a test compound was determined to be "active," then varying concentrations of the test compound were then assayed.
The pA2 value (a statistical constant which is a common measure of expressing the potency of a particular drug as a competitive antagonist) was then calculated for the test compound by schild plot calculations, as described by H.O. Schild, "pA, A New Scale for the Measurement of Drug Antagonism," Br. J. Pharmacol, 2, 189 (1947), according to the following mathematical formula: […]
to quantitate the effectiveness of the test compound as a prostaglandin E2 antagonist.

[3] = tested on: stimulant actions of prostaglandins on isolated smooth muscle preparations; conditions: cited from earlier work
[4] = tested on: micturition reflex in rats; conditions: urethane-anesthetized rats; cited from earlier work

SMILES: O=C(CCCCCl)NNC(=O)N1Cc2ccccc2Oc2ccc(Cl)cc21 [8-chlorodibenz[b,f][1,4]-oxazepine-10(11H)-carboxylic acid, 2-(5-chloro-1-oxopentyl)hydrazide]
- antagonism of prostaglandins of the E series [1]: competitive antagonists of prostaglandins of the E series

SMILES: CC(=O)NNC(=O)N1Cc2ccccc2Oc2ccc(Cl)cc21 [8-chlorodibenz[b,f][1,4]-oxazepine-10(11H-carboxylic acid, 2-acetylhydrazide]
- antagonism of prostaglandins of the E series [1]: competitive antagonists of prostaglandins of the E series

SMILES: CCS(=O)(=O)CCC(=O)NNC(=O)N1Cc2cc(OC)ccc2Oc2ccc(Cl)cc21 [Example 3, 8-chloro-2-methoxydibenz[b,f][1,4]oxazepine-10(11H)-carboxylic acid, 2-[3-(ethylsulfonyl)-1-oxopropyl]hydrazide]
- rank order of potency in the Writhing Assay (mice): Example 4>Example 8>Example 7>Example 3

SMILES: CCS(=O)(=O)CCC(=O)NNC(=O)N1Cc2cc(O)ccc2Oc2ccc(Cl)cc21 [Example 4, 8-chloro-2-hydroxydibenz[b,f][1,4]oxazepine-10(11H)-carboxylic acid, 2-[3-(ethylsulfonyl)-1-oxopropyl]hydrazide]
- PBQ writhing assay, I.G. (activity) (mice): Active
- PBQ writhing assay, S.C. (activity) (mice): Active
- ED50 (mice; Mus musculus, po, 0.5 h, intragastric, read-out: PBQ writhing assay ED50, I.G.): 12.6 mg/kg
- rank order of potency in the Writhing Assay (mice): Example 4>Example 8>Example 7>Example 3; also recorded: the most potent compound of the invention tested in this assay
- activity as prostaglandin E2 antagonist, in words ([2]; guinea pig ileum): exhibits activity as a prostaglandin E2 antagonist
- PGE antagonism in guinea pig ileum (activity) ([2]; guinea pig ileum segments, 37° C.): Active
- Kb ([2]; guinea pig ileum segments, 37° C., Schild plot, read-out: PGE antagonism in guinea pig ileum (pA2) (converted)): 3.98 µM

SMILES: CCS(=O)(=O)CCC(=O)NNC(=O)N1Cc2ccc(OC)cc2Oc2ccc(Cl)cc21 [Example 7, 8-chloro-3-methoxydibenz[b,f][1,4]oxazepine-10(11H)-carboxylic acid, 2-[3-(ethylsulfonyl)-1-oxopropyl]hydrazide]
- PBQ writhing assay, I.G. (activity) (mice): Active
- rank order of potency in the Writhing Assay (mice): Example 4>Example 8>Example 7>Example 3

SMILES: CCS(=O)(=O)CCC(=O)NNC(=O)N1Cc2ccc(O)cc2Oc2ccc(Cl)cc21 [Example 8]
- PBQ writhing assay, I.G. (activity) (mice): Active
- PBQ writhing assay, S.C. (activity) (mice): Active
- rank order of potency in the Writhing Assay (mice): Example 4>Example 8>Example 7>Example 3

SMILES: O=C(Cc1ccccc1)NNC(=O)N1Cc2ccccc2Oc2ccc(Cl)cc21 [SC-18637]
- inhibition of stimulant actions of prostaglandins [3]: inhibit the stimulant actions of prostaglandins on isolated smooth muscle preparations

SMILES: CC(=O)NNC(=O)N1Cc2ccccc2Oc2ccc(Cl)cc21 [SC-19220]
- bladder capacity [4]: increased the bladder capacity
- voiding efficiency of micturition [4]: reduced the voiding efficiency of micturition
- inhibition of stimulant actions of prostaglandins [3]: inhibit the stimulant actions of prostaglandins on isolated smooth muscle preparations
